# Experimental data taken from the supplement of paper PMC10307832.
# Legend:
# Assay in all cases: relative viability (nuclei count vs DMSO), 5 days (fraction); higher = more cells survive
# [1] = system: A549
# How it was run: (§1)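 Relative viability divides the nuclei count in treated wells by that in vehicle wells. Lung cancer cell lines were seeded in 1536-well plates, dosed by pin tool the next day, and fixed and stained after 5 days in one step with final 0.05% Triton X-100, 1% formaldehyde and 1 ug/ml Hoechst. Dosing was a single drug or a fixed anchor-drug dose plus five library-drug doses (not always all listed) in √10 steps, and values are medians of duplicate plates imaged at 4×.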
# [2] = system: NCI-H1623
# How it was run: as §1
# [3] = system: NCI-H2009
# How it was run: as §1
# [4] = system: NCI-H460
# How it was run: as §1
# [5] = system: NCI-H522
# How it was run: as §1
# [6] = system: NCI-H661
# How it was run: as §1
# [7] = system: Calu-6
# How it was run: as §1
# [8] = system: EBC-1
# How it was run: as §1
# [9] = system: IA-LM
# How it was run: as §1
# [10] = system: NCI-H1299
# How it was run: as §1
# [11] = system: NCI-H1648
# How it was run: as §1
# [12] = system: NCI-H1703
# How it was run: as §1
smiles,measurement,setting,value
NC(=O)Nc1cc(-c2cccc(F)c2)sc1C(=O)N[C@H]1CCCNC1 [AZD7762] + N=C(N)NC(=N)NCCc1ccccc1 [Phenformin] (partner 250 µM),relative viability,[1]; first compound 0.01 µM,0.167
same,relative viability,[1]; first compound 0.03162 µM,0.183
same,relative viability,[1]; first compound 0.1 µM,0.187
same,relative viability,[1]; first compound 0.3162 µM,0.188
same,relative viability,[1]; first compound 1 µM,0.184
same,relative viability,[2]; first compound 0.01 µM,0.557
same,relative viability,[2]; first compound 0.03162 µM,0.606
same,relative viability,[2]; first compound 0.1 µM,0.594
same,relative viability,[2]; first compound 0.3162 µM,0.632
same,relative viability,[2]; first compound 1 µM,0.497
same,relative viability,[3]; first compound 0.01 µM,0.496
same,relative viability,[3]; first compound 0.03162 µM,0.535
same,relative viability,[3]; first compound 0.1 µM,0.535
same,relative viability,[3]; first compound 0.3162 µM,0.543
same,relative viability,[3]; first compound 1 µM,0.439
same,relative viability,[4]; first compound 0.01 µM,0.542
same,relative viability,[4]; first compound 0.03162 µM,0.468
same,relative viability,[4]; first compound 0.1 µM,0.467
same,relative viability,[4]; first compound 0.3162 µM,0.253
same,relative viability,[4]; first compound 1 µM,0.0452
same,relative viability,[5]; first compound 0.01 µM,0.668
same,relative viability,[5]; first compound 0.03162 µM,0.711
same,relative viability,[5]; first compound 0.1 µM,0.635
same,relative viability,[5]; first compound 0.3162 µM,0.752
same,relative viability,[5]; first compound 1 µM,0.597
same,relative viability,[6]; first compound 0.01 µM,0.272
same,relative viability,[6]; first compound 0.03162 µM,0.269
same,relative viability,[6]; first compound 0.1 µM,0.232
same,relative viability,[6]; first compound 0.3162 µM,0.265
same,relative viability,[6]; first compound 1 µM,0.262
O=C(O)c1ccc(-c2c[nH]c3ncc(-c4ccccc4)cc23)cc1C1CCCC1 + O=C(c1cc(Cc2n[nH]c(=O)c3ccccc23)ccc1F)N1CCN(C(=O)C2CC2)CC1 [Olaparib] (partner 8 µM),relative viability,[1]; first compound 0.04 µM,0.224
same,relative viability,[1]; first compound 0.1265 µM,0.674
same,relative viability,[1]; first compound 0.4 µM,0.345
same,relative viability,[1]; first compound 1.265 µM,0.307
same,relative viability,[7]; first compound 0.04 µM,0.521
same,relative viability,[7]; first compound 0.1265 µM,0.56
same,relative viability,[7]; first compound 0.4 µM,0.488
same,relative viability,[7]; first compound 1.265 µM,0.395
same,relative viability,[8]; first compound 0.04 µM,0.692
same,relative viability,[8]; first compound 0.1265 µM,0.626
same,relative viability,[8]; first compound 0.4 µM,0.618
same,relative viability,[8]; first compound 1.265 µM,0.406
same,relative viability,[9]; first compound 0.04 µM,0.836
same,relative viability,[9]; first compound 0.1265 µM,0.758
same,relative viability,[9]; first compound 0.4 µM,0.846
same,relative viability,[9]; first compound 1.265 µM,0.719
same,relative viability,[10]; first compound 0.04 µM,0.964
same,relative viability,[10]; first compound 0.1265 µM,1
same,relative viability,[10]; first compound 0.4 µM,0.893
same,relative viability,[10]; first compound 1.265 µM,0.821
same,relative viability,[11]; first compound 0.04 µM,0.676
same,relative viability,[11]; first compound 0.1265 µM,1.15
same,relative viability,[11]; first compound 0.4 µM,0.763
same,relative viability,[12]; first compound 0.04 µM,0.57
same,relative viability,[12]; first compound 0.1265 µM,0.468
same,relative viability,[12]; first compound 0.4 µM,0.382
same,relative viability,[12]; first compound 1.265 µM,0.49
same,relative viability,[3]; first compound 0.04 µM,0.679
same,relative viability,[3]; first compound 0.1265 µM,0.708
same,relative viability,[3]; first compound 0.4 µM,0.653
same,relative viability,[3]; first compound 1.265 µM,0.568
same,relative viability,[4]; first compound 0.04 µM,0.523
same,relative viability,[4]; first compound 0.1265 µM,0.463
same,relative viability,[4]; first compound 0.4 µM,0.456
same,relative viability,[4]; first compound 1.265 µM,0.42
same,relative viability,[5]; first compound 0.04 µM,0.816
same,relative viability,[5]; first compound 0.1265 µM,0.673
same,relative viability,[5]; first compound 0.4 µM,0.596
same,relative viability,[5]; first compound 1.265 µM,0.755
same,relative viability,[6]; first compound 0.04 µM,0.698
same,relative viability,[6]; first compound 0.1265 µM,0.772
same,relative viability,[6]; first compound 0.4 µM,0.744
same,relative viability,[6]; first compound 1.265 µM,0.656
NC(=O)Nc1cc(-c2cccc(F)c2)sc1C(=O)N[C@H]1CCCNC1 [AZD7762] + Cc1nc(Nc2ncc(C(=O)Nc3c(C)cccc3Cl)s2)cc(N2CCN(CCO)CC2)n1 [Dasatinib] (partner 0.075 µM),relative viability,[2]; first compound 0.01 µM,0.471
same,relative viability,[2]; first compound 0.03162 µM,0.558
same,relative viability,[2]; first compound 0.1 µM,0.615
same,relative viability,[2]; first compound 0.3162 µM,0.482
same,relative viability,[2]; first compound 1 µM,0.482
same,relative viability,[3]; first compound 0.01 µM,0.334
same,relative viability,[3]; first compound 0.03162 µM,0.287
same,relative viability,[3]; first compound 0.1 µM,0.342
same,relative viability,[3]; first compound 0.3162 µM,0.282
same,relative viability,[3]; first compound 1 µM,0.181
same,relative viability,[4]; first compound 0.01 µM,0.531
same,relative viability,[4]; first compound 0.03162 µM,0.578
same,relative viability,[4]; first compound 0.1 µM,0.443
same,relative viability,[4]; first compound 0.3162 µM,0.304
same,relative viability,[4]; first compound 1 µM,0.0715
same,relative viability,[5]; first compound 0.01 µM,0.923
same,relative viability,[5]; first compound 0.03162 µM,0.919
same,relative viability,[5]; first compound 0.1 µM,0.76
same,relative viability,[5]; first compound 0.3162 µM,0.933
same,relative viability,[5]; first compound 1 µM,0.946
same,relative viability,[6]; first compound 0.01 µM,0.753
same,relative viability,[6]; first compound 0.03162 µM,0.808
same,relative viability,[6]; first compound 0.1 µM,0.575
same,relative viability,[6]; first compound 0.3162 µM,0.468
same,relative viability,[6]; first compound 1 µM,0.296
